# Laboratory results reported in ChEMBL document CHEMBL6114949, “Synthesis and physiological effects of new 4-aminophenol derivatives as paracetamol analogues” (Bioorg Med Chem Lett, 2025).
# Active and inactive are the calls of the source. No cut-off for these calls is given here.
# What was measured:
# Rattus norvegicus [1] = assay: Antinociceptive activity in zymosan-induced rat arthritis model assessed as nociceptive response inhibition at 150 mg/kg, ig administered once daily for 7 days and measured 1 hr post-zymosan challenge on day 7 by Randall-Selitto test (reference value: -34.6%); assay type: functional; settings: po, 168 h, time 7 day
# Rattus norvegicus [2] = assay: Antipyretic activity against LPS-induced polyphasic febrile response in rats assessed as suppression of rise in core body temperature at 150 mg/kg, po treated 40 mins prior to LPS addition and measured after 160 mins relative to control; assay type: functional; settings: time 200 min, 3.333 h
# [3] = Hepatotoxicity in zymosan-induced rat arthritis model assessed as change in hepatocyte karyoplasm at 150 mg/kg, ig administered once daily for 7 days by hematoxylin-eosin staining based histological analysis; assay type: toxicity, organism-based, Liver; settings: in vivo, po, 168 h, time 7 day
# [4] = Hepatotoxicity in zymosan-induced rat arthritis model assessed as change in hepatocyte shape at 150 mg/kg, ig administered once daily for 7 days by hematoxylin-eosin staining based histological analysis; assay type: toxicity, organism-based, Liver; settings: in vivo, po, 168 h, time 7 day
# [5] = Hepatotoxicity in zymosan-induced rat arthritis model assessed as effect on general architecture of liver at 150 mg/kg, ig administered once daily for 7 days by hematoxylin-eosin staining based histological analysis; assay type: toxicity, organism-based; settings: in vivo, po, 168 h, time 7 day
# [6] = Hepatotoxicity in zymosan-induced rat arthritis model assessed as change in shape of liver portal tracts at 150 mg/kg, ig administered once daily for 7 days by hematoxylin-eosin staining based histological analysis; assay type: toxicity, organism-based; settings: in vivo, po, 168 h, time 7 day
# [7] = Hepatotoxicity in zymosan-induced rat arthritis model assessed as effect on sinusoids arrangement at 150 mg/kg, ig administered once daily for 7 days by hematoxylin-eosin staining based histological analysis; assay type: toxicity, organism-based, Liver; settings: in vivo, po, 168 h, time 7 day
# Rattus norvegicus [8] = assay: Antipyretic activity against LPS-induced polyphasic febrile response in rats assessed as return of body temperature to background value at 150 mg/kg, po treated 40 mins prior to LPS addition and measured after 235 mins; assay type: functional, organism-based; settings: time 275.0 min
# [9] = Hepatotoxicity in zymosan-induced rat arthritis model assessed as effect on sinusoids elongation at 150 mg/kg, ig administered once daily for 7 days by hematoxylin-eosin staining based histological analysis; assay type: toxicity, organism-based, Liver; settings: in vivo, po, 168 h, time 7 day
# Rattus norvegicus [10] = assay: Antinociceptive activity in zymosan-induced rat model of thermal nociceptive hypersensitivity assessed as nociceptive response inhibition at 150 mg/kg, ig administered once daily for 7 days and measured 1 hr post-zymosan challenge on day 7 by hot-plate test (reference value: -42.4%); assay type: functional; settings: po, 168 h, time 7 day
# [11] = Hepatotoxicity in zymosan-induced rat arthritis model assessed as appearance of vacuoles in hepatocyte cytoplasm at 150 mg/kg, ig administered once daily for 7 days by hematoxylin-eosin staining based histological analysis; assay type: toxicity, organism-based, Liver; settings: in vivo, po, 168 h, time 7 day
# [12] = Hepatotoxicity in zymosan-induced rat arthritis model assessed as change in shape of liver central veins at 150 mg/kg, ig administered once daily for 7 days by hematoxylin-eosin staining based histological analysis; assay type: toxicity, organism-based; settings: in vivo, po, 168 h, time 7 day
# [13] = Hepatotoxicity in zymosan-induced rat arthritis model assessed as disruption of hepatocyte membrane at 150 mg/kg, ig administered once daily for 7 days by hematoxylin-eosin staining based histological analysis; assay type: toxicity, organism-based, Liver; settings: in vivo, po, 168 h, time 7 day
# [14] = Hepatotoxicity in zymosan-induced rat arthritis model assessed as change in hepatocyte nucleus size at 150 mg/kg, ig administered once daily for 7 days by hematoxylin-eosin staining based histological analysis; assay type: toxicity, organism-based, Liver; settings: in vivo, po, 168 h, time 7 day
# Rattus norvegicus [15] = assay: Antipyretic activity against LPS-induced polyphasic febrile response in rats assessed as change in core body temperature at 150 mg/kg, po treated 40 mins prior to LPS addition and measured after 160 mins during phase 1 (reference value: 0.85 deg C); assay type: functional; settings: time 200 min, 3.333 h
# [16] = Hepatotoxicity in zymosan-induced rat arthritis model assessed as effect on beam structure of liver at 150 mg/kg, ig administered once daily for 7 days by hematoxylin-eosin staining based histological analysis; assay type: toxicity, organism-based; settings: in vivo, po, 168 h, time 7 day
# [17] = Hepatotoxicity in zymosan-induced rat arthritis model assessed as change in hepatocyte cytoplasmic appearance at 150 mg/kg, ig administered once daily for 7 days by hematoxylin-eosin staining based histological analysis; assay type: toxicity, organism-based, Liver; settings: in vivo, po, 168 h, time 7 day
# [18] = Hepatotoxicity in zymosan-induced rat arthritis model assessed as effect on sinusoids elongation at 215 mg/kg, ig administered once daily for 7 days by hematoxylin-eosin staining based histological analysis; assay type: toxicity, organism-based, Liver; settings: in vivo, po, 168 h, time 7 day
# [19] = Hepatotoxicity in zymosan-induced rat arthritis model assessed as appearance of vacuoles in hepatocyte cytoplasm at 215 mg/kg, ig administered once daily for 7 days by hematoxylin-eosin staining based histological analysis; assay type: toxicity, organism-based, Liver; settings: in vivo, po, 168 h, time 7 day
# [20] = Hepatotoxicity in zymosan-induced rat arthritis model assessed as effect on beam structure of liver at 215 mg/kg, ig administered once daily for 7 days by hematoxylin-eosin staining based histological analysis; assay type: toxicity, organism-based; settings: in vivo, po, 168 h, time 7 day
# Rattus norvegicus [21] = assay: Antipyretic activity against LPS-induced polyphasic febrile response in rats assessed as suppression of rise in core body temperature at 215 mg/kg, po treated 40 mins prior to LPS addition and measured after 160 mins relative to control; assay type: functional; settings: time 200 min, 3.333 h
# [22] = Hepatotoxicity in zymosan-induced rat arthritis model assessed as change in shape of liver portal tracts at 215 mg/kg, ig administered once daily for 7 days by hematoxylin-eosin staining based histological analysis; assay type: toxicity, organism-based; settings: in vivo, po, 168 h, time 7 day
# [23] = Hepatotoxicity in zymosan-induced rat arthritis model assessed as disruption of hepatocyte membrane at 215 mg/kg, ig administered once daily for 7 days by hematoxylin-eosin staining based histological analysis; assay type: toxicity, organism-based, Liver; settings: in vivo, po, 168 h, time 7 day
# [24] = Hepatotoxicity in zymosan-induced rat arthritis model assessed as change in hepatocyte karyoplasm at 215 mg/kg, ig administered once daily for 7 days by hematoxylin-eosin staining based histological analysis; assay type: toxicity, organism-based, Liver; settings: in vivo, po, 168 h, time 7 day
# Rattus norvegicus [25] = assay: Antinociceptive activity in zymosan-induced rat arthritis model assessed as nociceptive response inhibition at 215 mg/kg, ig administered once daily for 7 days and measured 1 hr post-zymosan challenge on day 7 by Randall-Selitto test (reference value: -34.6%); assay type: functional; settings: po, 168 h, time 7 day
# Rattus norvegicus [26] = assay: Antipyretic activity against LPS-induced polyphasic febrile response in rats assessed as suppression of rise in core body temperature at 215 mg/kg, po treated 40 mins prior to LPS addition and measured after 10 mins; assay type: functional, organism-based; settings: time 50.0 min
# [27] = Hepatotoxicity in zymosan-induced rat arthritis model assessed as change in hepatocyte nucleus size at 215 mg/kg, ig administered once daily for 7 days by hematoxylin-eosin staining based histological analysis; assay type: toxicity, organism-based, Liver; settings: in vivo, po, 168 h, time 7 day
# [28] = Hepatotoxicity in zymosan-induced rat arthritis model assessed as effect on general architecture of liver at 215 mg/kg, ig administered once daily for 7 days by hematoxylin-eosin staining based histological analysis; assay type: toxicity, organism-based; settings: in vivo, po, 168 h, time 7 day
# [29] = Hepatotoxicity in zymosan-induced rat arthritis model assessed as change in hepatocyte shape at 215 mg/kg, ig administered once daily for 7 days by hematoxylin-eosin staining based histological analysis; assay type: toxicity, organism-based, Liver; settings: in vivo, po, 168 h, time 7 day
# [30] = Hepatotoxicity in zymosan-induced rat arthritis model assessed as effect on sinusoids arrangement at 215 mg/kg, ig administered once daily for 7 days by hematoxylin-eosin staining based histological analysis; assay type: toxicity, organism-based, Liver; settings: in vivo, po, 168 h, time 7 day
# Rattus norvegicus [31] = assay: Antinociceptive activity in zymosan-induced rat model of thermal nociceptive hypersensitivity assessed as nociceptive response inhibition at 215 mg/kg, ig administered once daily for 7 days and measured 1 hr post-zymosan challenge on day 7 by hot-plate test (reference value: -42.4%); assay type: functional; settings: po, 168 h, time 7 day
# [32] = Hepatotoxicity in zymosan-induced rat arthritis model assessed as change in shape of liver central veins at 215 mg/kg, ig administered once daily for 7 days by hematoxylin-eosin staining based histological analysis; assay type: toxicity, organism-based; settings: in vivo, po, 168 h, time 7 day
# Rattus norvegicus [33] = assay: Antipyretic activity against LPS-induced polyphasic febrile response in rats assessed as return of body temperature to background value at 215 mg/kg, po treated 40 mins prior to LPS addition and measured after 190 mins; assay type: functional, organism-based; settings: time 230.0 min
# [34] = Hepatotoxicity in zymosan-induced rat arthritis model assessed as change in hepatocyte cytoplasmic appearance at 215 mg/kg, ig administered once daily for 7 days by hematoxylin-eosin staining based histological analysis; assay type: toxicity, organism-based, Liver; settings: in vivo, po, 168 h, time 7 day
# Rattus norvegicus [35] = assay: Antipyretic activity against LPS-induced polyphasic febrile response in rats assessed as change in core body temperature at 215 mg/kg, po treated 40 mins prior to LPS addition and measured after 160 mins during phase 1 (reference value: 0.85 deg C); assay type: functional, organism-based; settings: time 200.0 min
compound,measurement,setting,value
CCCCCCCC(=O)Nc1ccc(OCC(=O)O)cc1,inhibition in vivo at 150 mg/kg,Rattus norvegicus [1],21.3%
same,fold change (FC),Rattus norvegicus [2],3
same,Activity,[3],Non-toxic
same,Activity,[4],Non-toxic
same,Activity,[5],Non-toxic
same,Activity,[6],Non-toxic
same,Activity,[7],Non-toxic
same,Activity,Rattus norvegicus [8],Active
same,Activity,[9],Non-toxic
same,inhibition in vivo at 150 mg/kg,Rattus norvegicus [10],8.5%
same,Activity,[11],Non-toxic
same,Activity,[12],Non-toxic
same,Activity,[13],Non-toxic
same,Activity,[14],Non-toxic
same,T,Rattus norvegicus [15],0.28 °C
same,Activity,[16],Non-toxic
same,Activity,[17],Non-toxic
CCCCCCCCCCCCCCCC(=O)Nc1ccc(OCC(=O)O)cc1,Activity,[18],Non-toxic
same,Activity,[19],Non-toxic
same,Activity,[20],Non-toxic
same,fold change (FC),Rattus norvegicus [21],3
same,Activity,[22],Non-toxic
same,Activity,[23],Non-toxic
same,Activity,[24],Non-toxic
same,inhibition in vivo at 215 mg/kg,Rattus norvegicus [25],21.7%
same,Activity,Rattus norvegicus [26],Active
same,Activity,[27],Non-toxic
same,Activity,[28],Non-toxic
same,Activity,[29],Non-toxic
same,Activity,[30],Non-toxic
same,inhibition in vivo at 215 mg/kg,Rattus norvegicus [31],42.2%
same,Activity,[32],Non-toxic
same,Activity,Rattus norvegicus [33],Active
same,Activity,[34],Non-toxic
same,ΔTm,Rattus norvegicus [35],0.28 °C
